According to US11267808B2, “Benzamide derivatives as PPAR-gamma modulators” (MEDIBIOFARMA, S.L., priority 2017, dated 2022):

Target: Human PPAR-gamma (Homo sapiens (Human), UniProt P37231)
Experiment: Human PPAR-gamma (h) (agonist radioligand) binding assay
Details: inhibition of radioligand specific binding; class ranges defined in μM
Experimental: The compounds of the present invention were assayed for binding to the Human PPAR-gamma (h) (agonist radioligand) Assay and were tested at several concentrations for IC50 determination.
Compound binding was calculated as a % inhibition of the binding of a radioactively labelled ligand specific for each target, as described in (FERRY, Gilles, et al. Binding of prostaglandins to human PPARγ: tool assessment and new natural ligands. European journal of pharmacology, 2001, vol. 417, no 1, p. 77-89).
The IC50 values (concentration causing a half-maximal inhibition of control specific binding) was determined by non-linear regression analysis of the competition curves generated with mean replicate values using Hill equation curve fitting
where Y=specific binding, A=left asymptote of the curve, D=right asymptote of the curve, C=compound concentration, C50=IC50, and nH=slope factor. This analysis was performed using software developed at EUROFINS Cerep Company (Hill software) and validated by comparison with data generated by the commercial software SigmaPlot® 4.0 for Windows® (© 1997 by SPSS Inc.).

Chain of Human PPAR-gamma (P37231 whole entry): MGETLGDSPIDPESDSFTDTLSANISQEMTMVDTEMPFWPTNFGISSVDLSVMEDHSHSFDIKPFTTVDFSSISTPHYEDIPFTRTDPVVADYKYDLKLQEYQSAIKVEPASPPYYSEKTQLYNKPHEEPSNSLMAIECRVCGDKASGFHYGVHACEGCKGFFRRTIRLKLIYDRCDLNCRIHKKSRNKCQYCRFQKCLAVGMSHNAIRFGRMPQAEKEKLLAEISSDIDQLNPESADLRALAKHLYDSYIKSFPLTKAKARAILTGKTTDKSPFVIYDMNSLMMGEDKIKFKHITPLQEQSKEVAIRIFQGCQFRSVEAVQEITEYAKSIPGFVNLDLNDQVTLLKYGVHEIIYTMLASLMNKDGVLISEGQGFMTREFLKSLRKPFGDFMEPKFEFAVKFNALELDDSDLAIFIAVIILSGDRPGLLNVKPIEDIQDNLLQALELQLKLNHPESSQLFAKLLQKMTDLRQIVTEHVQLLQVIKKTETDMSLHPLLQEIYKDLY

| IC50 | Compound |
| --- | --- |
| < 0.2 µM | N#Cc1ccc(F)c(C(=O)Nc2ccc(-c3ccc(F)cc3)nc2)c1 [Example 10, 5-cyano-2-fluoro-N-(6-(4-fluorophenyl)pyridin-3-yl)benzamide] |
| < 0.2 µM | N#Cc1ccc(Cl)c(C(=O)Nc2ccc(-c3ccccn3)nc2)c1 [Example 13, N-([2,2′-bipyridin]-5-yl)-2-chloro-5-cyanobenzamide] |
| < 0.2 µM | N#Cc1ccc(Cl)c(C(=O)Nc2ccc(-c3ccc(F)cc3)nc2)c1 [Example 4, 2-chloro-5-cyano-N-(6-(4-fluorophenyl)pyridin-3-yl)benzamide] |
| 1 to 50 µM | N#Cc1ccc(Cl)c(C(=O)Nc2ccnc(N3CCOCC3)c2)c1 [Example 16, 2-chloro-5-cyano-N-(2-morpholinopyridin-4-yl)benzamide] |
| < 0.2 µM | N#Cc1ccc(Cl)c(C(=O)Nc2ccc(-c3cccnc3)nc2)c1 [Example 5, N-([2,3′-bipyridin]-5-yl)-2-chloro-5-cyanobenzamide] |
| 1 to 50 µM | N#Cc1ccc(Cl)c(C(=O)Nc2ccnc(-c3cccnc3)c2)c1 [Example 6, N-([2,3′-bipyridin]-4-yl)-2-chloro-5-cyanobenzamide] |
| ≥ 50 µM | CN1CCN(c2cc(NC(=O)c3cc(C#N)ccc3Cl)ccn2)CC1 [Example 15, 2-chloro-5-cyano-N-(2-(4-methylpiperazin-1-yl)pyridin-4-yl)benzamide] |
| 0.2 to 1 µM | N#Cc1ccc(Cl)c(C(=O)Nc2ccnc(-c3ccc(F)cc3)c2)c1 [Example 3, 2-chloro-5-cyano-N-(2-(4-fluorophenyl)pyridin-4-yl)benzamide] |
| 1 to 50 µM | CN1CCN(c2ccc(NC(=O)c3cc(C#N)ccc3Cl)cn2)CC1 [Example 14, 2-chloro-5-cyano-N-(6-(4-methylpiperazin-1-yl)pyridin-3-yl)benzamide] |
| < 0.2 µM | N#Cc1ccc(Cl)c(C(=O)Nc2ccc(-c3ccccc3)nc2)c1 [Example 2, 2-chloro-5-cyano-N-(6-phenylpyridin-3-yl)benzamide] |
| 1 to 50 µM | N#Cc1ccc(Cl)c(C(=O)Nc2ccc(-c3ccncc3)nc2)c1 [Example 7, N-([2,4′-bipyridin]-5-yl)-2-chloro-5-cyanobenzamide] |
| < 0.2 µM | N#Cc1ccc(F)c(C(=O)Nc2ccc(-c3cccnc3)nc2)c1 [Example 9, N-([2,3′-bipyridin]-5-yl)-5-cyano-2-fluorobenzamide] |
| < 0.2 µM | N#Cc1ccc(Cl)c(C(=O)Nc2ccnc(-c3ccccc3)c2)c1 [Example 1, 2-chloro-5-cyano-N-(2-phenylpyridin-4-yl)benzamide] |
| 1 to 50 µM | N#Cc1ccc(Cl)c(C(=O)Nc2ccc(N3CCOCC3)nc2)c1 [Example 17, 2-chloro-5-cyano-N-(6-morpholinopyridin-3-yl)benzamide] |
